Assay results reported in patent US10729653B2, “Pharmaceutical compositions comprising 2-oxo-1-pyrrolidine derivatives” (UCB BIOPHARMA SRL, priority 2009, dated 2020).

How the values were obtained:
[1] = test system: rat hippocampal slices; assay: epileptiform responses in hippocampal slices (CA3 field potentials); format: cell-based, Sprague-Dawley rats; set-up: rate of spontaneous field bursting: dose or concentration left out as unconfirmed; conditions: for evoked epileptiform responses (PS1 amplitude, repetitive PSs) in CA3: high-K+/low-Ca2+ fluid (HKLCF) perfusion, fimbrial stimulation
Protocol: The effect of brivaracetam on epileptiform responses induced by high-K+/low-Ca2+ concentrations or by bicuculline was examined in transverse hippocampal slices prepared from Sprague-Dawley rats according to previously reported standard procedures. The epileptiform responses were induced by passing from a normal perfusion of artificial cerebrospinal fluid (ACSF) (K+3 mM; Ca2+2.4 mM) to either high-K+/low-Ca2+ fluid (HKLCF) (K+7.5 mM; Ca2+0.5 mM) or to […] bicuculline methiodide (BMI)-containing ACSF.
Extracellular field potentials (FPs) were recorded in the CA3 area of the slices with 2 M NaCl-filled glass microelectrodes. The evoked FPs were recorded at 10-min intervals in response to fimbrial stimulation with constant current rectangular pulses that elicit a single population spike (PS) of 50-75% of the maximal amplitude when the slice is in ACSF. In the HKLCF model, 2 min of spontaneous activity were also recorded, in the middle of each 10-min interval between the recordings of evoked responses.
Either brivaracetam or levetiracetam was added to the bathing fluid of the slices 20 min before shifting from ACSF to either HKLCF or […] BMI-containing ACSF, and was kept in the perfusion fluid throughout the experiment.

[2] = test system: fully amygdala-kindled rats; assay: fully amygdala-kindled rats; format: in vivo, rat; conditions: for dose from which a significant suppression in motor-seizure severity is induced: fully amygdala-kindled rats
[3] = test system: genetically sound-sensitive male mice; assay: audiogenic seizures in mice; format: in vivo; conditions: audiogenic seizure-susceptible mice; i.p., brivaracetam 30 min, levetiracetam 60 min pretreatment
Protocol: Audiogenic seizures in mice: Genetically sound-sensitive male mice (16-28 g; n=10 per group), responding with wild running, clonic and tonic convulsions to an acoustic stimulation, were used. Audiogenic seizures were induced by an acoustic stimulus (90 dB, 10-20 kHz) applied for 30 s. The mice were pretreated with either saline, brivaracetam (i.p., 30 min) or levetiracetam (i.p., 60 min), and the proportion of mice protected against clonic convulsions was used as the end point to assess anticonvulsant activity.

[4] = test system: pentylenetetrazol-induced clonic convulsions in mice; assay: chemically induced seizures in mice (pentylenetetrazol); format: in vivo; conditions: i.p. 30 min before seizure induction; higher ED50 values than in audiogenic mice
Protocol: The dose was selected based on dose-effect curves in saline-treated animals as the convulsive dose inducing clonic convulsions of all four extremities in 97% of the animals. Immediately after administration of the chemoconvulsant, the mice were placed individually in small plastic cages (25 13 8 cm) and observed for the presence of clonic convulsions in all four extremities, for 60 min. The occurrence of tonic convulsions (hindlimb extension) and mortality was also recorded during this interval. The proportion of mice protected against clonic convulsions was calculated and used as the end point for anticonvulsant activity.

[5] = test system: tonic hindlimb extension induced by a maximal electroshock in mice; assay: maximal electroshock in mice; format: in vivo; conditions: i.p. 30 min before seizure induction; higher ED50 values than in audiogenic mice
[6] = test system: GAERS rats; assay: spontaneous SWDs in GAERS rats; format: in vivo, rat
[7] = test system: corneal kindling of mice; assay: corneal kindling of mice; format: in vivo
[8] = test system: refractory partial onset seizures; conditions: adult patients, adjunctive treatment; cited from earlier work
[9] = test system: post-herpetic neuralgia; conditions: patients; cited from earlier work
[10] = test system: rat hippocampal slices; conditions: background statement; cited from earlier work

Row | SMILES | rate of spontaneous field bursting ([1]; HKLCF) | evoked epileptiform responses (PS1 amplitude, repetitive PSs) in CA3 [1] | dose from which a significant suppression in motor-seizure severity is induced [2] [mg/kg] | after-discharge duration ([2]; highest dose tested (212.3 mg kg-1)) | protection against the expression of clonic convulsions [3] | protection against clonic convulsions induced by pentylenetetrazol [4] | protection against tonic hindlimb extension induced by a maximal electroshock [5] | dose from which spontaneous SWDs are significantly suppressed ([6]; GAERS rats) [mg/kg] | inhibition of spontaneous SWDs ([6]; highest dose tested (67.9 mg kg-1)) | incidence of generalized motor seizures after termination of treatment ([7]; continued corneal stimulations, group previously treated with the highest dose) | incidence of generalized motor seizures ([7]; pretreatment during corneal kindling, levetiracetam at higher doses) | efficacy in the treatment of epilepsy [8] | efficacy in post-herpetic neuralgia [9] | after-discharge duration ([2]; up to 1700 mg kg-1) | epileptiform responses induced by high-K+/low-Ca2+ concentrations and by bicuculline [10]
1 | CCC[C@@H]1CC(=O)N([C@@H](CC)C(N)=O)C1 [Brivaracetam, (2S)-2-[(4R)-2-oxo-4-propyl-pyrrolidin-1-yl]butanamide] | reduced the rate of this spontaneous bursting | reduced these epileptiform responses | ≥ 21.2 | significantly reduced the after-discharge duration | protected | protected | protected | ≥ 2.1 | complete inhibition | persistent reduction in the incidence of generalized motor seizures | significant reduction in the incidence of generalized motor seizures | effective in the treatment of epilepsy | effective in the treatment of patients with post-herpetic neuralgia |  | 
2 | CC[C@@H](C(N)=O)N1CCCC1=O [Levetiracetam] |  | reduced these epileptiform responses | ≥ 170 |  | protected |  |  |  |  |  |  |  |  | inactive | reduces epileptiform responses
3 | CC[C@@H](C(N)=O)N1C[C@H](C=C(F)F)CC1=O [Seletracetam, (2S)-2-[(4S)-4-(2,2-difluorovinyl)-2-oxo-pyrrolidin-1-yl]butanamide] |  |  |  |  |  |  |  |  |  |  |  | effective in the treatment of epilepsy |  |  | 
